Where two headings read alike, the source gives them in different places.
How the values were obtained:
[1] = target: T1, Enterococcus faecalis UPPS (EfaUPPS), wild-type (Enterococcus faecalis, UniProt Q831K9); experiment: UPPS inhibition assay (enzyme-coupled fluorescence), wild-type EfaUPPS; assay type: biochemical
T1 construct: His tag; made in house; host or cells: E. coli BL21(DE3)
Procedure: Enterococcus faecalis undecaprenyl pyrophosphate synthase (EfaUPPS) recombination studies were performed as previously described ([Li et al., 2020]). Briefly, the full-length gene sequence of EfaUPPS was cloned into the NdeI and HindIII sites of pET28a vector under control of T7 promoter. The sequenced plasmid was then transformed into E. coli strain BL21(DE3) (Invitrogen) and the transformants were grown on LB broth media supplemented with 50 μg/mL kanamycin. A single colony of the transformant was then cultured in 100 mL of LB broth containing 50 μg/mL kanamycin overnight. The overnight cultures were inoculated into 1 L of LB broth containing 50 μg/mL kanamycin and continue to culture until reaching an OD600 of 0.8. Upon reaching the optimal growth states, the cultures were induced by addition of 1 mM isopropyl-β-D-thiogalactoside (IPTG), and then cultured at 16°C for 16 h. […]
The UPPS inhibition assay was carried out by measuring the fluorescence of the reaction mixture in a black 96-well microtiter plate (Corning, United States). […] The UPPS inhibitory activity was performed by calculating the fluorescence percentage through determining the fluorescence absorbance of reaction mixture at 316 and 456 nm. […]

[2] = target: T2, EfaUPPS (K47A) (Enterococcus faecalis, UniProt Q831K9, K53A); experiment: UPPS inhibition assay, EfaUPPS K47A mutant; assay type: biochemical; settings: K47A mutant compared with wild-type
T2 construct: His tag; made in house; host or cells: E. coli BL21(DE3)
T2 sequence (Q831K9 whole entry K53A): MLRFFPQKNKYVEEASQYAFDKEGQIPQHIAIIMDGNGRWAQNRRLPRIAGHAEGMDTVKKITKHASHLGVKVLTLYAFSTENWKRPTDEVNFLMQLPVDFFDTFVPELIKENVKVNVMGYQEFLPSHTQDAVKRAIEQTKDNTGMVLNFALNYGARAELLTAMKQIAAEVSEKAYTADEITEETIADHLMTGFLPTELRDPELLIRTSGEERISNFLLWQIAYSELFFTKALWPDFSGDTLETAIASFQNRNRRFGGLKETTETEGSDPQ
Procedure: The EfaUPPS site-directed mutagenesis was generated using QuikChange site-directed mutagenesis kit (Agilent) according to the manufacturer’s instructions. The purification of site-directed mutation was using a similar strategy as described above.
The UPPS inhibition assay was carried out by measuring the fluorescence of the reaction mixture in a black 96-well microtiter plate (Corning, United States). […] After the indicated incubation period, the reaction was terminated by the addition of 10 μl of 0.5 M EDTA solution. Transferred 50 μl of the reaction mixture into a new 96-well microtiter plate, and quenched with an equal volume of Master Reaction Mix (Pyrophosphate Assay Kit, Sigma-Aldrich, USA) for 30 min. The UPPS inhibitory activity was performed by calculating the fluorescence percentage through determining the fluorescence absorbance of reaction mixture at 316 and 456 nm. Data of UPPS inhibitory activities were plotted versus compound concentrations on a semi-log scale using GraphPad Prism7. All the results were the means of at least three biological replicates.

[3] = target: T2, EfaUPPS (K47A); experiment: Microscale thermophoresis binding assay, EfaUPPS K47A
Procedure: To characterize the binding affinity between EfaUPPS and GA or NGA, the MST binding assay was performed as previously described ([Lin et al., 2020]). In brief, His-tagged EfaUPPS and site-directed mutated EfaUPPS were labeled with the NT- 647-NHS dye using the Monolith NTTM Protein Labeling Kit RED-NHS (NanoTemper Technologies). Two-fold serially diluted GA or NGA was mixed with 10 nM of labeled EfaUPPS or its derivatives in 10 μl of binding buffer (137 mM NaCl, 2.7 mM KCl, 10 mM Na2HPO4, 1.8 mM KH2PO4, and 0.05% Tween-20, pH 7.8), incubated for 15 min, at room temperature. And then, loaded the mixtures into NT.115 premium coated capillaries (NanoTemper Technologies). MST trace signals were collected from the IR laser on to off for about 20 s, under the 5% LED power and high MST power mode. The change of molecular thermophoresis was monitored by standardized fluorescence value Fnorm, and the binding curve was plotted according to the values of Fnorm. The formed complex affinity was analyzed by MO Affinity Analysis software version 2.3. Apparent dissociation constants (Kd) were calculated using nonlinear fitting assuming one specific binding site with the GraphPad Prism 7 software with the following formula: Y = B^∗Max X/KD + X.
(^∗ where BMax is the maximum theoretical specific binding; here BMax = 1).

[4] = system: E. coli BAS849 transformed with pQE80L or pQE80L-EfaUPPS variants; experiment: Ex-vivo growth inhibition assay; assay type: cell-based, Escherichia coli; settings: compound at 8 μg/mL
Procedure: The E. faecalis ATCC29212 undecaprenyl pyrophosphate synthase genes, and the L91A and L146A mutation fragments were cloned into the BamH I and Hind III digested pQE80Lvector, respectively. The resulting plasmids were transformed into E. coli BAS849, respectively. The strain transformed with the empty vector pQE80L was used as a negative control. A single colony of each transformant was inoculated into LB broth supplemented with 100 μg/mL ampicillin and incubated at 200 rpm, 37°C overnight. After diluted the cultures to 7 × 10^5 CFU/mL by LB broth, 5 μl of each diluted cultures were dripped onto a LB agar plate supplemented with IPTG (0.5 mM), and GA or NGA (8 μg/mL) followed by cultivation at 37°C overnight, and then imaged. In the meantime, another 5 μl of each diluted cultures were diluted in 100 ul LB and coated on the relevant plates to check for bacterial CFUs.

[5] = system: E. faecalis ATCC29212; experiment: Bacterial activity (bactericidal) test; assay type: cell-based, Enterococcus faecalis; settings: 2 μg/mL
Procedure: The E. faecalis ATCC29212 were pre-cultured in LB broth at 200 rpm, 37°C overnight, and then the cultures were diluted to 7 × 10^5 CFU/mL by LB broth. A 96-well microtiter plate was inoculated with 200 μl the diluted cultures per well containing 0.1 mg/mL Resazurin with or without 2 μg/mL GA or NGA, followed by incubation at 37°C for 24 h, and then imaged. Three biological replicates were performed for each sample. To visualized the potential bactericidal properties for GA and NGA, the 24 h of GA/NGA-pretreated E. faecalis were coated on the plate to continue cultured overnight. The bactericidal properties of the compounds were determined by counting the bacterial CFUs.

[6] = overexpression of wild-type EfaUPPS

T1 sequence (Q831K9 whole entry): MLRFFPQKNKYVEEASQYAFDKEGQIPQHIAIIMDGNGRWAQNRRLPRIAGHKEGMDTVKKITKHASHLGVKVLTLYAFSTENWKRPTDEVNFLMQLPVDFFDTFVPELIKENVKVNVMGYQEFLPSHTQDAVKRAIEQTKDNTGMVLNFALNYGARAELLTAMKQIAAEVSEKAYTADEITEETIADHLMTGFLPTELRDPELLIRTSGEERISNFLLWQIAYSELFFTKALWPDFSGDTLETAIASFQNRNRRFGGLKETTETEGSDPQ

**Q.** Which IC50 ([1]; WT EfaUPPS, 35 μM IPP, 5 μM FPP, read-out: IC50) does the source give for CC(C)=CCC[C@]1(C)C=Cc2c(O)c3c(c(CC=C(C)C)c2O1)O[C@]12C(=C[C@@H]4C[C@H]1C(C)(C)O[C@@]2(C/C=C(/C)C(=O)O)C4=O)C3=O [GA, gambogic acid] here?
**A.** 3.08 µM

**Q.** What about the “IC50 values of K47A mutant (in words)” value [2] of the same compound?
**A.** increased

**Q.** And the “effect of mutation on inhibitory effect of compound on EfaUPPS enzyme activity” value [2]?
**A.** no obvious difference

**Q.** And the Kd [3]?
**A.** 4.61 ± 2.62 µM

**Q.** What about the “Kd fold lower than that of the wild-type” value ([3]; K47A vs wild-type) of the same compound?
**A.** about 6 fold

**Q.** What about the “growth of E. coli BAS849” value ([4]; empty vector pQE80L) of the same compound?
**A.** completely inhibited

**Q.** What about the “growth of E. coli BAS849” value [4, 6] of the same compound?
**A.** rescued the cell growth

**Q.** And the “growth of E. coli BAS849” value ([4]; pQE80L-EfaUPPS L91A)?
**A.** moderate resistance

**Q.** And the “growth of E. coli BAS849” value ([4]; pQE80L-EfaUPPS L146A)?
**A.** moderate resistance

**Q.** What about the “bactericidal properties (CFUs after 24 h pretreatment)” value [5] of the same compound?
**A.** potential bactericidal effects

**Q.** Which results are given for CC(C)=CCC[C@]1(C)CC(O)c2c(O)c3c(c(CC=C(C)C)c2O1)O[C@]12C(=C[C@@H]4C[C@H]1C(C)(C)O[C@@]2(C/C=C(/C)C(=O)O)C4=O)C3=O (stereo partly shown) [NGA, neogambogic acid]?
**A.** IC50 [1]: 3.07 µM; effect of mutation on inhibitory effect of compound on EfaUPPS enzyme activity [2]: significantly reduced; Kd [3]: 65.9 ± 25.8 µM; Kd fold higher than that of the wild-type ([3]; K47A vs wild-type): about 10 fold; growth of E. coli BAS849 ([4]; empty vector pQE80L): completely inhibited; growth of E. coli BAS849 [4, 6]: rescued the cell growth; growth of E. coli BAS849 ([4]; pQE80L-EfaUPPS L91A): moderate resistance; growth of E. coli BAS849 ([4]; pQE80L-EfaUPPS L146A): moderate resistance; bactericidal properties (CFUs after 24 h pretreatment) [5]: potential bactericidal effects

Reference: PMC9791066, “Investigations into the antibacterial effects and potential mechanism of gambogic acid and neogambogic acid” (Frontiers in Microbiology, 2022)
